Patent US11541029B2, “High penetration compositions and their applications” (Techfields Pharma Co., Ltd., priority 2008, dated 2023)
Blank lines part the entries; values can stand above or below the compound they belong to.

Key:
[1] = tested on: Human Gastric Cancer HGC-27 cell; experiment: HGC-27 cell proliferation, MTT assay; type: cell-based; settings: 72 hours
Description: The inhibition of cellular proliferation was measured by the modified dimethyl thiazolyl diphenyl tetrazolium salt (MTT) [3-(4,5-dimethylthiazol-2-yl)-2,5-diphenyltetrazolium bromide] assay, based on the ability of live cells to converting thiazolyl blue to dark blue formazan. Approximately 3500 cells of HGC-27 (in 100 μl culture solution) were seeded into 96-well culture plates and were cultured for 16 hours at 37° C. Different concentration solution (100 μl) of Taxol (positive control), chlorambucil, or N,N-diethylaminoethyl 4-[bis(2-chloroethyl)amino]benzenebutyrate.HCl salt (HPC of chlorambucil) were added and incubation continued for 72 hours at 37° C. Then MTT were added and incubation continued at 37° C. for 4 h, and 100 μl DMSO was pipetted to solubilize the formazan product for 30 min at room temperature. The absorbency at 570 nm was measured using Bio-Rad micro-plate reader […].

[2] = tested on: Human breast cancer cells (BCAP-37); experiment: Human breast cancer xenograft in nude mice
Description: Human breast cancer cells (BCAP-37, 2-3 mm^3 of tumor tissue was used in each mouse) were subcutaneously xenografted into nude mice (BALB, 12 groups, 7 mice each group). […] 50 μl of 5% (equal to 2.5 mg of the HPCs) diethylaminoethyl acetylsalicylate.HCl (P-1, in pure water); 1-piperidinepropyl 2[(2,6-dichlorophenyl)amino]benzene acetate.HCl (P-2, in water), 1-pyrrolidinepropyl 2-(3-benzoylphenyl) propionate.HCl (P-3, in water), 4-piperidinemethyl 2-(3-phenoxyphenyl)propionate.HCl (P-4, in water), 3-piperidinemethyl 2-(ρ-isobutylphenyl) propionate.HCl (P-5, in water), diethylaminoethyl 1-(p-chlorobenzoyl)-5-methoxy-2-methylindole 3-acetate.HCl (P-11, in water), 2-(4-morpholinyl)ethyl (Z)-5-fluoro-2-methyl-1-[(4-methylsulfinyl)phenylmethylene]-1H-indene-3-acetate.

[3] = tested on: Human colon cancer cells (LS174J); experiment: Human colon cancer xenograft in nude mice
Text: Human colon cancer cells (LS174J, 2-3 mm^3 of tumor tissue was used in each mouse) were subcutaneously xenografted into nude mice (BALB).

[4] = tested on: rats given sterilized E. coli suspension as a pyrogen; experiment: Antipyretic activity of aspirin and its HPC (Study B); type: in vivo
Description: […] Group A was the control group. The body temperature of rats was taken at 90 min. intervals before and after the administration of the test compounds.

[5] = Distribution in organs of rats killed with CO2 (absence of general circulation); settings: 5 hrs after 0.3 mmol/kg diethylaminoethyl acetylsalicylate HCl salt on back of killed rats;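 further: tissue concentration in nmol/g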
Description: 0.3 mmol/kg of diethylaminoethyl acetylsalicylate HCl salt (10% in pure water) was applied to the back of rats (10 cm^2) which were killed with CO2. The rats were shaken for 5 hrs, then the HPCs and parent drugs in organs of rats were determined.

[6] = tested on: type 2 diabetes rat models [SLAC/GK(Goto and Kakisaki)]; experiment: Hypoglycemic effects of aspirin and its HPC in GK rats, once per day for 6 weeks; type: in vivo; settings: for Blood Glucose Levels at day 1 / Blood Glucose Levels at day 42: no fasting, n = 5;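 on Blood Glucose Levels at day 42: blood glucose in mg/dL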
Description: The blood glucose levels were measured three times every week (no fasting) from the third week to the sixth week.

[7] = 50 μl of 5% topically every 8 hours
[8] = about 50 μl of 5% topically every 12 hours

Compound: CCN(CC)CCOC(=O)CCCc1ccc(N(CCCl)CCCl)cc1.Cl [HPC of chlorambucil, N,N-diethylaminoethyl 4-[bis(2-chloroethyl)amino]benzenebutyrate.HCl salt]
HGC-27 cell growth inhibition rate ([1]; 0.5 μM): 15.6% | HGC-27 cell growth inhibition rate ([1]; 2.0 μM): 28.7% | HGC-27 cell growth inhibition rate ([1]; 5.0 μM): 42.1% | HGC-27 cell growth inhibition rate ([1]; 25 μM): 61.6% | HGC-27 cell growth inhibition rate ([1]; 50 μM): 82.1% | HGC-27 cell growth inhibition rate ([1]; 75 μM): 96.5% | HGC-27 cell growth inhibition rate ([1]; 100 μM): 98.1% | HGC-27 cell growth inhibition rate ([1]; 200 μM): 97.2% | HGC-27 cell growth inhibition rate ([1]; 500 μM): 98.2%

Compound: Cl.O=C(Cc1ccccc1Nc1c(Cl)cccc1Cl)OCCCN1CCCCC1 [P-2, 1-piperidinepropyl 2[(2,6-dichlorophenyl)amino]benzene acetate.HCl]
tumor Size at day 42 [2, 7]: 160 ± 50 mm^3 | Weight of mice at day 42 ([2]; 50 μl of 5% topically every 8 hours, in g (unit assumed)): 23 ± 2 | Weight of mice at day 30 [3, 8]: 22 ± 2 | tumor Size at day 30 [3, 8]: 520 ± 170 mm^3

Compound: CC(C(=O)OCCCN1CCCC1)c1cccc(C(=O)c2ccccc2)c1.Cl (centres unmarked) [P-3, 1-pyrrolidinepropyl 2-(3-benzoylphenyl) propionate.HCl]
tumor Size at day 42 [2, 7]: 210 ± 60 mm^3 | Weight of mice at day 42 ([2]; in vivo): 22 ± 3 | tumor Size at day 30 [3, 8]: 550 ± 190 mm^3 | Weight of mice at day 30 ([3]; in vivo): 23 ± 2

Compound: CC(C(=O)OCC1CCNCC1)c1cccc(Oc2ccccc2)c1.Cl (centres unmarked) [P-4, 4-piperidinemethyl 2-(3-phenoxyphenyl)propionate.HCl]
tumor Size at day 42 [2, 7]: 190 ± 55 mm^3 | Weight of mice at day 42 ([2]; in vivo): 23 ± 3 | tumor Size at day 30 [3, 8]: 550 ± 128 mm^3 | Weight of mice at day 30 ([3]; in vivo): 22 ± 3

Compound: Cl.Nc1c(CC(=O)OCCN2CCOCC2)cccc1C(=O)c1ccccc1 [P-16, 2-(4-morpholinyl)ethyl 2-amino-3-benzoylbenzeneacetate.HCl]
tumor Size at day 30 [3, 8]: 590 ± 350 mm^3 | Weight of mice at day 30 ([3]; in vivo): 23 ± 2

Compound: CC(=O)Oc1ccccc1C(=O)O [aspirin, acetylsalicylic acid, reference compound]
body temperature ([4]; 20 mg/kg, orally, t = 0 min., in °C (unit assumed)): 37.5 ± 0.2 | body temperature ([4]; 20 mg/kg, orally, t = 90 min., in °C (unit assumed)): 37.7 ± 0.3 | body temperature ([4]; 20 mg/kg, orally, t = 180 min., in °C (unit assumed)): 37.4 ± 0.3 | body temperature ([4]; 20 mg/kg, orally, t = 270 min., in °C (unit assumed)): 37.4 ± 0.4 | body temperature ([4]; 50 mg/kg, orally, t = 0 min., in °C (unit assumed)): 37.5 ± 0.3 | body temperature ([4]; 50 mg/kg, orally, t = 90 min., in °C (unit assumed)): 37.7 ± 0.3 | body temperature ([4]; 50 mg/kg, orally, t = 180 min., in °C (unit assumed)): 37.1 ± 0.3 | body temperature ([4]; 50 mg/kg, orally, t = 270 min., in °C (unit assumed)): 37.0 ± 0.4 | body temperature ([4]; 100 mg/kg, orally, t = 0 min., in °C (unit assumed)): 37.5 ± 0.2 | body temperature ([4]; 100 mg/kg, orally, t = 90 min., in °C (unit assumed)): 37.3 ± 0.4 | body temperature ([4]; 100 mg/kg, orally, t = 180 min., in °C (unit assumed)): 36.7 ± 0.3 | body temperature ([4]; 100 mg/kg, orally, t = 270 min., in °C (unit assumed)): 36.8 ± 0.4 | body temperature ([4]; groups H/I, 50 mg/kg, transdermally, t = 0 min., in °C (unit assumed)): 37.6 ± 0.3 | body temperature ([4]; groups H/I, 50 mg/kg, transdermally, t = 90 min., in °C (unit assumed)): 37.9 ± 0.3 | body temperature ([4]; groups H/I, 50 mg/kg, transdermally, t = 180 min., in °C (unit assumed)): 37.8 ± 0.4 | body temperature ([4]; groups H/I, 50 mg/kg, transdermally, t = 270 min., in °C (unit assumed)): 37.7 ± 0.5 | body temperature ([4]; groups J/K, 20 mg/kg, transdermally, t = 0 min., in °C (unit assumed)): 37.6 ± 0.3 | body temperature ([4]; groups J/K, 20 mg/kg, transdermally, t = 90 min., in °C (unit assumed)): 37.8 ± 0.4 | body temperature ([4]; groups J/K, 20 mg/kg, transdermally, t = 180 min., in °C (unit assumed)): 37.7 ± 0.4 | body temperature ([4]; groups J/K, 20 mg/kg, transdermally, t = 270 min., in °C (unit assumed)): 38.0 ± 0.3 | body temperature ([4]; groups L/M, 20 mg/kg, transdermally, t = 0 min.): 37.5 ± 0.3 | body temperature ([4]; groups L/M, 20 mg/kg, transdermally, t = 90 min., in °C (unit assumed)): 37.6 ± 0.5 | body temperature ([4]; groups L/M, 20 mg/kg, transdermally, t = 180 min., in °C (unit assumed)): 37.8 ± 0.3 | body temperature ([4]; groups L/M, 20 mg/kg, transdermally, t = 270 min., in °C (unit assumed)): 37.9 ± 0.3 | antipyretic activity ([4]; transdermal administration): did not show any antipyretic activity | concentration in Leg muscle [5]: 6.7 ± 2.1 nmol/g | concentration in kidney [5]: 3.5 ± 2.1 nmol/g | concentration in liver [5]: 2.1 ± 1.0 nmol/g | concentration in pancreas [5]: 4.1 ± 1.3 nmol/g | concentration in stomach [5]: 4.7 ± 2.5 nmol/g | Blood Glucose Levels at day 1 ([6]; 50 mg/kg, orally): 213.7 ± 20.5 mg/dL | Blood Glucose Levels at day 42 ([6]; 50 mg/kg, orally): 243.4 ± 26.7 mg/dL | Blood Glucose Levels at day 1 ([6]; 50 mg/kg, transdermally): 216.6 ± 17.3 mg/dL | Blood Glucose Levels at day 42 ([6]; 50 mg/kg, transdermally): 258.2 ± 17.4 mg/dL | Blood Glucose Levels at day 1 ([6]; 100 mg/kg, orally): 211.3 ± 21.5 mg/dL | Blood Glucose Levels at day 42 ([6]; 100 mg/kg, orally): 219.4 ± 19.9 mg/dL | Blood Glucose Levels at day 1 ([6]; 100 mg/kg, transdermally): 217.4 ± 18.9 mg/dL | Blood Glucose Levels at day 42 ([6]; 100 mg/kg, transdermally): 255.4 ± 24.6 mg/dL | Blood Glucose Levels at day 1 ([6]; 200 mg/kg, orally): 213.5 ± 21.5 mg/dL | Blood Glucose Levels at day 42 ([6]; 200 mg/kg, orally): 195.4 ± 23.4 mg/dL | Blood Glucose Levels at day 1 ([6]; 200 mg/kg, transdermally): 216.4 ± 21.9 mg/dL | Blood Glucose Levels at day 42 ([6]; 200 mg/kg, transdermally): 247.4 ± 27.8 mg/dL | Blood Glucose Levels at day 1 ([6]; 300 mg/kg, orally): 215.6 ± 22.4 mg/dL | Blood Glucose Levels at day 42 ([6]; 300 mg/kg, orally): 165.4 ± 22.1 mg/dL | anti-diabetic effect ([6]; transdermal administration): did not show any anti-diabetic effect

More lines, main results first:

Weight of mice at day 30 ([3]; in vivo): 23 ± 3
Compound: CCN(CC)CCOC(=O)c1ccccc1Nc1cccc(C)c1C.Cl [P-46, diethylaminoethyl 2-[(2,3-dimethylphenyl)amino]benzoate.HCl]
tumor Size at day 30 [3, 8]: 650 ± 250 mm^3

Weight of mice at day 30 ([3]; in vivo): 22 ± 2
Compound: CCN(CC)CCOC(=O)c1ccccc1Nc1c(Cl)ccc(C)c1Cl.Cl [P-47, diethylaminoethyl 2-[(2,6-dichloro-3-methylphenyl)amino]benzoate.HCl]
tumor Size at day 30 [3, 8]: 590 ± 350 mm^3

Weight of mice at day 30 ([3]; in vivo): 23 ± 3
Compound: CN(C)CCCC(=O)OC1=C(C(=O)Nc2nccs2)N(C)S(=O)(=O)c2ccccc21.Cl [P-52, N-(2-thiazoyl)-4-N,N-dimethylaminobutyryloxy-2-methyl-2H,1,2-benzothiazine-3-carboxamide 1,1-dioxide.HCl]
tumor Size at day 30 [3, 8]: 720 ± 280 mm^3
